Measurements taken from US4010264A, “7-[3-Substituted isoxazol-5-yl]-acetamido-cephalosporanic acids and their anti-bacterial use” (Koninklijke Nederlandsche Gist-en Spiritusfabriek N.V., priority 1970, dated 1977).
≈ marks a conversion by molar mass, not a printed value. Counter-ions that a name gives are not always drawn. Like-named read-outs stand apart in the source and are kept apart here.

Assays:
[1] = test system: Bacillus subtilis ATCC 6633; experiment: MIC, agar serial dilution test; format: cell-based
[2] = test system: Staphylococcus aureus A55; experiment: MIC, agar serial dilution test; format: cell-based
[3] = test system: Streptococcus faecalis L 80; experiment: MIC, agar serial dilution test; format: cell-based; conditions: Enterococcus faecalis
[4] = test system: Staphylococcus aureus L160a (penicillinase-producing); experiment: MIC, agar serial dilution test; conditions: 24 h
[5] = test system: Diplococcus pneumoniae L 54; experiment: MIC, agar serial dilution test; format: cell-based; conditions: Streptococcus pneumoniae
[6] = test system: Staphylococcus aureus A321; experiment: MIC, agar serial dilution test; format: cell-based
[7] = test system: Staphylococcus aureus A355 (penicillinase-producing); experiment: MIC, agar serial dilution test; conditions: 24 h
[8] = test system: Streptococcus haemolyticus A266; experiment: MIC, agar serial dilution test; format: cell-based
Brucella melitensis A488 = experiment: microbe, parasite or virus in culture; format: cell-based; conditions: A488, 24 h
[9] = test system: Pasteurella multocida A723; experiment: MIC, agar serial dilution test; format: cell-based
[10] = test system: Klebsiella pneumoniae A809; experiment: MIC, agar serial dilution test; format: cell-based
[11] = ATCC6633, Bacillus subtilis ATCC 6633, 24 hours at 37° C, read-out: MIC
[12] = Staphylococcus aureus A55, 24 hours at 37° C, read-out: MIC
[13] = L80, Streptococcus faecalis L 80, 24 hours at 37° C, read-out: MIC
[14] = L54, Diplococcus pneumoniae L 54, 24 hours at 37° C, read-out: MIC
[15] = Staphylococcus aureus A321, 24 hours at 37° C, read-out: MIC
[16] = Streptococcus haemolyticus A266, 24 hours at 37° C, read-out: MIC
[17] = Pasteurella multocida A723, 24 hours at 37° C, read-out: MIC
[18] = Klebsiella pneumoniae A809, 24 hours at 37° C, read-out: MIC
[19] = Bacillus subtilis, ATCC6633, 24 h
[20] = Staphylococcus aureus, A55, 24 h
[21] = Staphylococcus aureus, A321, 24 h
[22] = Pasteurella multocida, A723, 24 h
[23] = Klebsiella pneumoniae, A809, 24 h

Work on Cc1cc(CC(=O)NC2C(=O)N3[C@@H]2SC(C)(C)[C@@H]3C(=O)O)on1 (stereo partly drawn) [Example XXI, 6-{[3-methyl-isoxazol-5-yl]acetamido}penicillanic acid] yielded an MIC [1, 11] of 0.06 µg/mL (≈ 0.177 µM), an MIC [2, 12] of 0.5 µg/mL (≈ 1.47 µM) and an MIC [3, 13] of 3 µg/mL (≈ 8.84 µM). It also gave an MIC [4] of 3 µg/mL (≈ 8.84 µM), an MIC [5, 14] of 1.5 µg/mL (≈ 4.42 µM) and an MIC [6, 15] of 0.25 µg/mL (≈ 0.737 µM). It also gave an MIC [7] of 6 µg/mL (≈ 17.7 µM), an MIC [8, 16] of 0.03 µg/mL (≈ 0.0884 µM) and an MIC (Brucella melitensis A488) of 3 µg/mL (≈ 8.84 µM). For the same compound, the MIC [9, 17] was 1.5 µg/mL (≈ 4.42 µM) and the MIC [10, 18] was over 100 µg/mL.
Work on Cc1cc(C)c(-c2cc(CC(=O)NC3C(=O)N4C3SC(C)(C)C4C(=O)O)on2)c(C)c1 (stereo not drawn) [VI, Sodium salt of 6-{[3-(2,4,6-trimethyl)phenylisoxazol-5-yl]acetamido}penicillanic acid] yielded an MIC [1, 11] of 0.03 µg/mL, an MIC [2, 12] of 0.06 µg/mL and an MIC [3, 13] of 0.25 µg/mL. The MIC [4] was 0.5 µg/mL, the MIC [5, 14] was 0.03 µg/mL and the MIC [6, 15] was 0.06 µg/mL. For the same compound, the MIC [7] was 3 µg/mL, the MIC [8, 16] was 0.012 µg/mL and the MIC (Brucella melitensis A488) was 3 µg/mL. The MIC [9, 17] was 12.5 µg/mL and the MIC [10, 18] was 100 µg/mL.
With CC1(C)SC2C(NC(=O)C(N)c3cc(-c4c(Cl)cccc4Cl)no3)C(=O)N2C1C(=O)O (stereo not drawn) [Example XVIII, 6-{α-amino-[3-(2,6-dichloro)phenyl-isoxazol-5-yl]acetamido} penicillanic acid] the MIC [1, 11] was 0.06 µg/mL (≈ 0.124 µM), the MIC [2, 12] was 0.25 µg/mL (≈ 0.515 µM) and the MIC [3, 13] was 1 µg/mL (≈ 2.06 µM). It also gave an MIC [4] of 12.5 µg/mL (≈ 25.8 µM), an MIC [5, 14] of 0.12 µg/mL (≈ 0.247 µM) and an MIC [6, 15] of 0.12 µg/mL (≈ 0.247 µM). For the same compound, the MIC [7] was 12.5 µg/mL (≈ 25.8 µM), the MIC [8, 16] was under 0.015 µg/mL and the MIC (Brucella melitensis A488) was 0.5 µg/mL (≈ 1.03 µM). For the same compound, the MIC [9, 17] was 6 µg/mL (≈ 12.4 µM) and the MIC [10, 18] was over 100 µg/mL.
Work on CC1(C)SC2C(NC(=O)Cc3onc(-c4c(Cl)cccc4Cl)c3C#N)C(=O)N2C1C(=O)O (stereo not drawn) [Example XV, Sodium salt of 6-{[3-(2,6-dichloro)phenyl-4-cyano-isoxazol-5-yl]acetamido}penicillanic acid] yielded an MIC [1, 11] of 0.25 µg/mL, an MIC [2, 12] of 0.5 µg/mL and an MIC [3, 13] of 0.5 µg/mL. For the same compound, the MIC [4] was 12.5 µg/mL, the MIC [5, 14] was 0.03 µg/mL and the MIC [6, 15] was 1 µg/mL. The MIC [7] was 12.5 µg/mL, the MIC [8, 16] was 0.06 µg/mL and the MIC (Brucella melitensis A488) was 6 µg/mL. For the same compound, the MIC [9, 17] was 12.5 µg/mL and the MIC [10, 18] was over 100 µg/mL.
CC1=C(C(=O)O)N2C(=O)[C@@H](NC(=O)[C@H](N)c3ccccc3)[C@H]2SC1 [Cephalexine, Cephalexin, reference compound] was tested, and the MIC [1, 19] was 0.5 µg/mL (≈ 1.44 µM), the MIC [2, 20] was 3 µg/mL (≈ 8.64 µM) and the MIC ([3]; L80, 24 h) was 100 µg/mL (≈ 288 µM). The MIC [4] was 12.5 µg/mL (≈ 36 µM), the MIC ([5]; L54, 24 h) was 3 µg/mL (≈ 8.64 µM) and the MIC [6, 21] was 1.5 µg/mL (≈ 4.32 µM). It also gave an MIC [7] of 12.5 µg/mL (≈ 36 µM), an MIC ([8]; Streptococcus, A266, 24 h) of 0.25 µg/mL (≈ 0.72 µM) and an MIC (Brucella melitensis A488) of 6 µg/mL (≈ 17.3 µM). For the same compound, the MIC [9, 22] was 3 µg/mL (≈ 8.64 µM) and the MIC [10, 23] was 3 µg/mL (≈ 8.64 µM).
Work on Cc1c(-c2c(Cl)cccc2Cl)noc1CC(=O)NC1C(=O)N2C1SC(C)(C)C2C(=O)O (stereo not drawn) [Example X, Sodium salt of 6-{[3-(2,6-dichloro)phenyl-4-methyl-isoxazol-5-yl]acetamido}penicillanic acid] yielded an MIC [1, 11] of 0.005 µg/mL, an MIC [2, 12] of 0.03 µg/mL and an MIC [3, 13] of 0.25 µg/mL. For the same compound, the MIC [4] was 0.5 µg/mL, the MIC [5, 14] was 0.02 µg/mL and the MIC [6, 15] was 0.03 µg/mL. The MIC [7] was 3 µg/mL, the MIC [8, 16] was 0.006 µg/mL and the MIC (Brucella melitensis A488) was 3 µg/mL. For the same compound, the MIC [9, 17] was 3 µg/mL and the MIC [10, 18] was over 100 µg/mL.
In the case of O=C(Cc1cccs1)N[C@@H]1C(=O)N2C(C(=O)[O-])=C(C[n+]3ccccc3)CS[C@H]12 [Cephaloridine, Cephaloridin, reference compound], the MIC [1, 19] is reported as 0.06 µg/mL (≈ 0.144 µM), the MIC [2, 20] is reported as 0.06 µg/mL (≈ 0.144 µM) and the MIC ([3]; L80, 24 h) is reported as 12.5 µg/mL (≈ 30.1 µM). The MIC [4] was 0.06 µg/mL (≈ 0.144 µM), the MIC ([5]; L54, 24 h) was 0.015 µg/mL (≈ 0.0361 µM) and the MIC [6, 21] was 0.06 µg/mL (≈ 0.144 µM). For the same compound, the MIC [7] was 0.12 µg/mL (≈ 0.289 µM), the MIC ([8]; Streptococcus, A266, 24 h) was 0.015 µg/mL (≈ 0.0361 µM) and the MIC (Brucella melitensis A488) was 3 µg/mL (≈ 7.22 µM). It also gave an MIC [9, 22] of 1 µg/mL (≈ 2.41 µM) and an MIC [10, 23] of 3 µg/mL (≈ 7.22 µM).
Compound Cc1onc(-c2ccccc2Cl)c1C(=O)N[C@@H]1C(=O)N2[C@@H]1SC(C)(C)[C@@H]2C(=O)O [Cloxazilline, Cloxacillin, reference compound] has an MIC [1, 11] of 0.25 µg/mL (≈ 0.574 µM), an MIC [2, 12] of 0.12 µg/mL (≈ 0.275 µM) and an MIC [3, 13] of 25 µg/mL (≈ 57.4 µM). The MIC [4] was 1 µg/mL (≈ 2.29 µM), the MIC [5, 14] was 1.5 µg/mL (≈ 3.44 µM) and the MIC [6, 15] was 0.06 µg/mL (≈ 0.138 µM). It also gave an MIC [7] of 0.5 µg/mL (≈ 1.15 µM), an MIC [8, 16] of 0.25 µg/mL (≈ 0.574 µM) and an MIC (Brucella melitensis A488) of 100 µg/mL (≈ 229 µM). The MIC [9, 17] was 6 µg/mL (≈ 13.8 µM) and the MIC [10, 18] was 6 µg/mL (≈ 13.8 µM).
CC1(C)SC2C(NC(=O)Cc3cc(-c4ccc([N+](=O)[O-])cc4)no3)C(=O)N2C1C(=O)O (stereo not drawn) [XIX, Sodium salt of 6-{[3-p-nitrophenyl-isoxazol-5-yl]acetamido}penicillanic acid] showed an MIC [1, 11] of under 0.015 µg/mL, an MIC [2, 12] of 0.03 µg/mL and an MIC [3, 13] of 1 µg/mL. The MIC [4] was 3 µg/mL, the MIC [5, 14] was 0.03 µg/mL and the MIC [6, 15] was 0.03 µg/mL. The MIC [7] was 1 µg/mL, the MIC [8, 16] was 1.5 µg/mL and the MIC (Brucella melitensis A488) was 0.12 µg/mL. It also gave an MIC [9, 17] of 1 µg/mL and an MIC [10, 18] of 100 µg/mL.
